These results are taken from patent US7713960B2, “Inhibition of the Raf/Mek/P-Erk pathway for treating cancer” (University of South Florida, priority 2005, dated 2010).

For assay [1], the system named is SNB-19 cells. Nature of the assay: Anchorage-dependent growth (MTT assay), SNB-19. Format: cell-based, human. Conditions: n = 3. The procedure:
MTT Assay—2000 cells per well were plated into 96 well tissue culture plates, and the cells were allowed to attach overnight at 37° C. with 10% CO2. Cells were then treated with increasing concentrations of ARA-211, or vehicle (DMSO) and incubated for four days. At that time treatment medium was removed and replaced with 100 μl of lmg/ml MTT (Sigma-Aldrich, St. Louis, Mo.) in media and incubated at 37° C., 10% CO2 for 3 hours. After 3 hours the MTT media was removed and replaced with 100 μl/well of DMSO, rocked at room temperature for 5 minutes, then absorbance read at 540 nm on a micro-plate reader.

Assay [2] deals with SNB-19 cells. Briefly: Anchorage-independent growth (soft agar assay), SNB-19. The format is cell-based, human. The procedure: Soft Agar Assay—Anchorage independent growth assays were performed as previously described (Lerner et al., 1997). Briefly, agar was diluted to 0.3% in propagation media containing 20,000 cells and either vehicle or ARA-211 and 1 ml of cell/agar mixture plated on top of 2 ml of a 0.6% layer of agar in medium alone. Cells were grown for three to four weeks at 37° C., 10% Co2 and were fed weekly with 100 μl per well of media/treatment. Quantification of colonies was done using a GS-700 scanning densitometer.

Assay [3] relates to SNB-19 cells. Nature of the assay: Nude mouse xenograft model, SNB-19 (s.c.). The note with it: SNB-19 xenograft; i.p. 75 mpk/day. Format: in vivo, nude mice. The text has this:
Anti-tumor activity in nude mouse xenograft model—Female athymic nude (nu/nu) mice, 5-6 weeks old, were purchased from Charles River (Wilmington, Mass.) and allowed to acclimate in the animal facility for one week. After harvesting, A-549, SNB-19, ACHN, and HCT-116 cells were, resuspended in sterile PBS, and injected s.c. into the right and left flanks (10×10^6 cells per flank) of the mice as previously described (Sun et al., 2005). For MDA-MB-231, cells were harvested and resuspended in PBS (10×10^6 cells per 50 μl) and an equal volume of Matrigel (BD Biosciences, San Jose, Calif.). 100 μl of MDA-MB-231 cells in PBS/Matrigel were injected s.c. into the mammary fat pads between the 2nd and 3rd nipples on each side of the mice. Once the tumors reached approximately 200-300 mm^3 the mice were randomized and treated i.p. with 0.1 ml vehicle (PBS) or ARA-211. Each treatment group consisted of five mice (2 tumors per mouse, a total of 10 tumors). The tumor volumes were determined by measuring the length (l) and width (w) and calculating the volume (V=w^2l/2). Statistical significance between the control and treated animals was determined using a student's t test.

Structures can show the parent of a compound that is named as a salt.

On to `CC(C)(C)NCC(O)c1ccc(O)c(CO)n1` (stereo not drawn) [ARA-211, 2-hydroxymethyl-3-hydroxy-6-(1-hydroxy-2-tert-butylaminoethyl) pyridine, dihydrochloride], for which the “Anchorage Dependent Growth (% Inhibition)” value with SNB-19 cells [1] is on record as 0 (n = 3) %. Also, the “Anchorage Independent Growth (% Inhibition)” value with SNB-19 cells [2] worked out at 5.1 ± 5.0%. Further, in the assay on SNB-19 cells [3], the growth of tumors entry was “is not affected”.
